We go through three molecules from patent US20220125042A1, “CRYOPROTECTANT AND/OR CRYOPRESERVANT COMPOSITION, METHODS AND USES THEREOF” (UNIVERSIDADE NOVA DE LISBOA, priority 2017, published 2022).

One data set concerns L929 cell lines. Kind of data set: Direct contact of NADES with cell culture, viability by MTS assay. The data set is classed as cell-based. To be noted: FIG. 3. As to the method:
In an embodiment, the L929 cell lines were grown in DMEM (Sigma, USA), supplemented with 10% heat-inactivetes fetal bovine serum (FBS, Biochron AG, Germany) and 1% antibiotic-antimicotic (Gibco, USA). The cells were cultured in a humidified atmosphere of 37° C., with 5% CO2.
In an embodiment, the viability of the systems prepared was measured using a method of direct contact with cells (Direct−contact of NADES with cell culture). The cells were seeded onto a 96-well plate for 24 h in the total 1×10^4 cells/well. After 24 h, the medium was removed and extracts with different percentage of NADES, in particular 1%, 5%, 10% and 20% in culture medium were added. The viability of the cells cultured with these extracts was determined by MTS assay, after 24 h and 72 h.
In an embodiment, the MTS cell viability assay was conducted as follows: the influence of the cryopreservants was determined by MTS assay (Cell Titer 96 Aqueous One Solution Cell Proliferation Assay, Promega, USA) after 24 h and 72 h of culture. […] The absorbance was measured at a wavelength of 490 nm using a microplate spectrometer (Synergy HT, Bio-TEK, USA). To the results of absorbance was subtracting the absorbance obtained by blank (culture medium MTS with MTS reagent). […]
Background: Formazan colour is commonly taken as a measure of viable cells.

Another data set relates to L929 cell line. Description: Cryopreservation (freezing/thawing) of cells with cryoprotective agent; morphology, live-dead, DAPI-Phalloidin and MTS viability after thawing. The data set is classed as cell-based. The note with it: 10% cryopreservant, FIG. 4. As to the method:
In an embodiment, the cells were freezed and thawed, in particular the cells were collected by centrifugation (300 rpm for 5 min) and suspended in cool mixture with FBS and cryopreservant (DMSO or Treh-Gly; 5% and 10% cryopresenvant in the FBS). The cells and freezing medium were dispensed into cryotubes (Nunc) (1×10^6 cells/1 mL), and immediately placed into a freezing box (Mr. Frosty) at −20° C. for 2 h. Latter they were placed for 24 h at −80° C. and then the cryotubes were placed in liquid nitrogen. The cells were frozen for 1, 2 and 3 months. As control trehalose and glycerol alone were used in the same concentration. […] In an embodiment, the MTS cell viability assay was conducted as follows: the influence of the cryopreservants was determined by MTS assay (Cell Titer 96 Aqueous One Solution Cell Proliferation Assay, Promega, USA) after 24 h and 72 h of culture. […] The absorbance was measured at a wavelength of 490 nm using a microplate spectrometer (Synergy HT, Bio-TEK, USA). To the results of absorbance was subtracting the absorbance obtained by blank (culture medium MTS with MTS reagent). In an embodiment, the live/dead cell viability assay was used (calcein AM/propidium iodide (PI) staining) (n=5 samples per well) to evaluated cell viability. […] In an embodiment, in vitro biological evaluation of NADES performance as cryopreservant was assessed using the L929 cell line. […]

Take `C[S+](C)[O-]` [DMSO]: the “cell viability in contact with cells” value is “cell dead” in the data set with L929 cell lines (10% and 20% in the culture media); “very low viability” in the data set with L929 cell lines (low concentrations, 1 or 5% in culture media). Regarding `OCC(O)CO` [glycerol], the “morphological analysis and cell viability after cryopreservation” value in the data set on L929 cell line was “somewhat compromised”. `OC[C@H]1O[C@H](O[C@H]2O[C@H](CO)[C@@H](O)[C@H](O)[C@H]2O)[C@H](O)[C@@H](O)[C@@H]1O` [trehalose]: the “morphological analysis and cell viability after cryopreservation” value in the data set with L929 cell line is given as “somewhat compromised”.
